Columns and labels:
MAO-B = molecular target: T1, MAO-B (Homo sapiens, UniProt P27338); experiment: MAO-B inhibition assay (Biovision fluorometric kit); format: biochemical
T1 construct: purchased Biovision
T1 sequence (P27338 1-520): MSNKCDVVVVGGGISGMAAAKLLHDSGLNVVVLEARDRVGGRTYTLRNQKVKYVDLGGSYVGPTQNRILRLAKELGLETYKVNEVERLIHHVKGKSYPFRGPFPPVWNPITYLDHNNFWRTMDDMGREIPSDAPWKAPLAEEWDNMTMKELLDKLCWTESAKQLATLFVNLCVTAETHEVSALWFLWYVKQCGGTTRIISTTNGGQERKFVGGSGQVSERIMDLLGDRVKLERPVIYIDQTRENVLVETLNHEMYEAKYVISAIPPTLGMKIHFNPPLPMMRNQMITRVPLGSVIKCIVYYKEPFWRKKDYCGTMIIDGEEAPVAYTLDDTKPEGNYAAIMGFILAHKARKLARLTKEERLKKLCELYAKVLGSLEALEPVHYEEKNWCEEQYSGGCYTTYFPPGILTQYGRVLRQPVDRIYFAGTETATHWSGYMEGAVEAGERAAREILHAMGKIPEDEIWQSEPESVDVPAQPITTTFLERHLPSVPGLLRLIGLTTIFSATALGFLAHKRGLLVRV
Method: MAO-B (EC 1.4.3.4) activity inhibition was assayed using Biovision inhibition screening kit (fluorometric). With all reaction components at room temperature, 0.2 U enzyme was pre-incubated with compounds under study and incubated for 10 min. Working substrate was prepared fresh by adding developer and oxired probe with assay buffer according to kit instructions. Substrate was added to the reaction and incubated for 10 min; zero-minute fluorescence was recorded (Ex 535 nm, Em 587 nm) to serve as control for relative fluorescence inhibition calculation.

AChE = molecular target: T2, AChE (Electrophorus electricus, UniProt O42275); experiment: biochemical; conditions: for SI (selectivity index): AChE selectivity over BuChE, IC50 BuChE/IC50 AChE; for IC50: mean ± SD, three replicate determinations
T2 construct: acetylcholinesterase from electric eel; purchased Sigma Aldrich, India
T2 sequence (O42275 24-633): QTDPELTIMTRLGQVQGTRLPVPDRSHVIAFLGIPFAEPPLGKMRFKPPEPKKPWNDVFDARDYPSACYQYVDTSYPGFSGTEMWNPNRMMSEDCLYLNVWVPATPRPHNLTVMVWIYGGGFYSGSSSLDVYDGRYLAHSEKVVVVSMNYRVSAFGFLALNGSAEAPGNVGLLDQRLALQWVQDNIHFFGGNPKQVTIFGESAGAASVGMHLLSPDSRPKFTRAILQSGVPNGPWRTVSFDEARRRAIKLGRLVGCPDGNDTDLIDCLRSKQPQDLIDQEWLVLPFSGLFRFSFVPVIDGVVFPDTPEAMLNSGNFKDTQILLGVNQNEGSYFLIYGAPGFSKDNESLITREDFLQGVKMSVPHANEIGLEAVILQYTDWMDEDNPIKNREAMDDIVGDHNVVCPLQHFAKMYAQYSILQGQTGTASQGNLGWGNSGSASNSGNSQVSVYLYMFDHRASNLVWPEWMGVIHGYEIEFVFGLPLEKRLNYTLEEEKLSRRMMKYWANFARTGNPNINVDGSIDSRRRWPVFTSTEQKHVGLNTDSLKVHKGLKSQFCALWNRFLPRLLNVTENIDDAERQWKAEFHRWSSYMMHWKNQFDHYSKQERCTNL
Text: (§1) MAO-B inhibition kit by Biovision. BACE-1 activity assay kit by Sigma Aldrich. […] PC12 (rat pheochromocytoma) cell line was obtained from NCCS, Pune, India. All other reagents used were of analytical grade. All preparations used in tissue culture experiments were filtered through 0.45 µm Axiva 25 mm CA filter. Ethical approval was obtained from GGS Indrapratha University for all the cell culture work done in proper confined facilities.
(§2) Five microliters of enzyme (AChE and BuChE) solution at 0.03 U/mL final assay concentration; 200 μL of phosphate buffer (pH 8); 5 μL of DTNB (0.3 mM); and 5 μL of test compounds were pre-incubated for 15 min at RT. The reaction was initiated by adding 5 μL of substrate (ATChI and BuTChI) at a final concentration of 0.5 mM. The control for relative absorbance consisted of the buffer in place of the test compounds and the enzyme and substrate blank were devoid of enzyme and the substrate, respectively.

BuChE = molecular target: T3, BuChE (Equus caballus, UniProt P81908); experiment: biochemical; conditions: mean ± SD, three replicate determinations
T3 construct: butyrylcholinesterase from equine serum; purchased Sigma Aldrich, India; host or cells: equine serum
T3 sequence (P81908 whole entry): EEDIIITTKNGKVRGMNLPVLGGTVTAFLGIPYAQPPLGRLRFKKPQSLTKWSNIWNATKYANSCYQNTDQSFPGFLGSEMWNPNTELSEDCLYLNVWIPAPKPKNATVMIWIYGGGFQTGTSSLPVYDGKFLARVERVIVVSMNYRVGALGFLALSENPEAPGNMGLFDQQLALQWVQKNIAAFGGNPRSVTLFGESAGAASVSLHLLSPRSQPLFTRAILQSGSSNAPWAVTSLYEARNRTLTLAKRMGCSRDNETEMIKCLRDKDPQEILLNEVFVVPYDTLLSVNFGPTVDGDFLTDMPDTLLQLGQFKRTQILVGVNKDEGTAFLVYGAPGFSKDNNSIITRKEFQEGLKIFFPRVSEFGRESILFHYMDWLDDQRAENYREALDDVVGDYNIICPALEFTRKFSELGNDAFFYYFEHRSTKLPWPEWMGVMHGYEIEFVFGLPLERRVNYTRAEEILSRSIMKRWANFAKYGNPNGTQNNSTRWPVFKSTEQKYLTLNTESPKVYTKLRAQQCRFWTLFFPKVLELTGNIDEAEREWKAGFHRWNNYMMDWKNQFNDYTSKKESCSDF
Text: as §1, §2

Aβ42 [1] = molecular target: T4, Aβ42 (Homo sapiens, UniProt P05067); experiment: Circular dichroism spectroscopy of Aβ42 secondary structure (BeStSel); format: biochemical; parameters: Aβ42—Amyloid beta 1-42 residues; purchased Link biotech (named in a list that ends 'purchased from Sigma Aldrich, India'); conditions: for Secondary structure content: Others / Secondary structure content: α-helix / Secondary structure content: Turn / Secondary structure content: β-sheet (parallel) / Secondary structure content: β-sheet (antiparallel): Aβ42 22 μM + compound 22 μM, BeStSel from CD spectra; for Secondary structure content: Others / Secondary structure content: α-helix: Aβ42 control 0.0; for Secondary structure content: Turn: Aβ42 control 8.6; for Secondary structure content: β-sheet (parallel): Aβ42 control 16.5; for Secondary structure content: β-sheet (antiparallel): Aβ42 control 74.9; for inhibition in β-sheet formation: compared to control (Aβ42 only), CD, 48 h incubation
T4 sequence (P05067 672-713 limits assumed): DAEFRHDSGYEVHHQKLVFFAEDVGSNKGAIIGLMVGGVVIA
Method: Secondary structure of Aβ42 peptides were recorded as far UV circular dichroism spectra using Chirascan (Applied PhotoPhysics, New Delhi, India) instrument and software. 22 μM Aβ42 samples (22 μM Aβ42 alone and Aβ42 with RES and AJM) were mixed well ensuring a homogenous suspension and transferred to quartz cell for CD spectra scanning. CD spectra was recorded from 200–260 nm at RT using a bandwidth of 1.0 nm, times per point 0.5 sec, a step interval of 1 nm, and 10 mm path length. Five scans of each sample were measured and averaged. Averaged control buffer scans were subtracted from the sample spectra. The results of CD measurement were plotted as graph between measured ellipticity (millidegree) and wavelength (nm). The secondary structure contents (α-helix, β-sheet, turn, and random coil) of the Aβ42 peptide samples were estimated from the CD spectra using the CD Pro software. Relative percentage of reduced β-sheet content in Aβ42 samples treated with RES and AJM was calculated using BeStSel software.

Aβ42 [2] = molecular target: T4, Aβ42; experiment: Congo red dye binding (red shift) assay with Aβ42 fibrils; conditions: CR only 490 nm, Aβ42 only 530 nm
Method: Aβ42 alone sample was used as control. Samples were incubated at 37 °C at 260 rpm for 48 h in the shaker incubator.
Congo red (200 μM) was dissolved in a 50 mM phosphate buffer (pH 7.4) consisting of 50 mM NaCl and 10% ethanol and filtered through 0.45 µm CA membrane filter. The Aβ42 concentration was fixed at 10 µM in the reaction mixture. […] The absorbance spectra (400–650 nm) of the samples were recorded with a UV-visible spectrophotometer [27]. All experiments had three technological and three biological repeats.

Aβ42 [3] = molecular target: T4, Aβ42; experiment: ThT fluorescence assay of Aβ42 fibril formation (anti-aggregation); format: biochemical; parameters: Aβ42—Amyloid beta 1-42 residues; purchased Link biotech (named in a list that ends 'purchased from Sigma Aldrich, India'); conditions: vs control (Aβ42 only), 48 h; for inhibition of Aβ42 aggregation (ThT fluorescence): at 44 μM
Method: Aβ42 samples were incubated with or without compounds at different concentrations, after 48 h of fibril formation samples from each experimental set were withdrawn and mixed with ThT in opaque micro titer plate. The reactions were then incubated in dark at 37 °C for 30 min for ThT probe to bind the formed amyloid fibrils. The ThT was excited at 450 nm and spectra were recorded from 400 to 650 nm.

PC12 cells [4] = experiment: Aβ42 induced neurotoxicity in PC12 cells (MTT assay); conditions: 24 h
Method: Cells were seeded in 96 well plate in log phase of growth at concentration 5 × 10^5 cells per well. […] MTT solution was added to the wells and incubated in dark, for the live cells to convert the tetrazolium salt in purple formazan crystals. The formazan crystals were dissolved using DMSO and absorbance was measured at 570 nm. Relative survival percentage of PC12 cells was calculated compared to control (PC12 cells only). All measurements were performed in triplicates and all experiments were repeated thrice individually.

BACE-1 = molecular target: T5, BACE-1 (Homo sapiens, UniProt P56817); experiment: In vitro BACE-1 enzyme inhibition assay (FRET kit); format: biochemical
T5 construct: purchased Sigma Aldrich
T5 sequence (P56817 46-501): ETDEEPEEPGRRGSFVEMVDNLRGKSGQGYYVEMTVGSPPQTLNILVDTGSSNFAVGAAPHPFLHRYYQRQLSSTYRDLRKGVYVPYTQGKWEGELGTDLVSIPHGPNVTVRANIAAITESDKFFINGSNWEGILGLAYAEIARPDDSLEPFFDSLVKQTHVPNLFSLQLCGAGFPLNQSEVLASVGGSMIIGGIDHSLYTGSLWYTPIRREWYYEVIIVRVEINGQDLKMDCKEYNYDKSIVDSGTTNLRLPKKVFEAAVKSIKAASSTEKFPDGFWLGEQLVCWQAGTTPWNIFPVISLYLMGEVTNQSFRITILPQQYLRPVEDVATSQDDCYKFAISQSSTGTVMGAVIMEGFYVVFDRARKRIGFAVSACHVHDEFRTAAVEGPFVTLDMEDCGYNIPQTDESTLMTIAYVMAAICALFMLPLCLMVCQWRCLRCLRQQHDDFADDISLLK
Method: BACE-1 (EC 3.4.23.46) activity inhibition was assayed using FRET (fluorescence resonance energy transfer) kit (Sigma Aldrich, New Delhi, India). With all reaction components at RT, 50 μM substrate was added to 75 μL assay buffer containing RES and AJM (25, 50, 100 μM) in the microtiter plate. Reaction was initiated by the addition of 0.03 U BACE-1 enzyme in the well and zero minute fluorescence was recorded (Ex 350 nm, Em 405 nm). After 2 h incubation in dark at 37 °C, reaction fluorescence was recorded every one hour for next three hours. Relative fluorescence inhibition was calculated from zero minute fluorescence reading as control. Three individual experiments were performed.

PC12 cells [5] = experiment: Neuroprotection against H2O2 induced oxidative stress cytotoxicity in PC12 cells (MTT assay); format: cell-based, rat; conditions: compound 40 μM; H2O2 200 µM; negative control 31% viability
Method: Cell viability was determined through trypan blue dye exclusion assay and cells were seeded to 96 well tissue culture plate at a 5 × 10^5 cells/well concentration. Pre-incubation with compounds were given to PC12 cells prior to inducing H2O2 cytotoxicity for 18 h. MTT was added to the well at 5 mg/mL concentration and incubated in the dark for enzymatic reaction by live cells for 2 h. DMSO was added to well to dissolve formazan crystals and absorbance was recorded at 570 nm. PC12 cells relative survival was calculated compared to control (PC12 cells only).

Aβ42 [6] = molecular target: T4, Aβ42; experiment: Transmission electron microscopy of Aβ42 aggregates; parameters: Aβ42—Amyloid beta 1-42 residues; purchased Link biotech (named in a list that ends 'purchased from Sigma Aldrich, India'); conditions: Aβ42 + 44 μM compound, 37 °C, 48 h; control: abundant long, branched, dense fibrils
Method: 5 μL Aβ42 prepared fibril samples (22 μM) Aβ42 alone and Aβ42 with RES and AJM) were loaded on carbon stabilized, formvar coated grid for 40 sec. Ashless filter paper was used to wipe out extra sample from the edges of the grid. Loaded grid was negatively stained with 1% uranyl acetate for 20 sec and air-dried. Grid was then examined and photographed on JEOL 2100F transmission electron microscope.

## COC(=O)[C@H]1[C@H]2C[C@@H]3c4[nH]c5cc(OC)ccc5c4CCN3C[C@H]2C[C@@H](OC(=O)c2cc(OC)c(OC)c(OC)c2)[C@@H]1OC [Reserpine]
MAO-B
  inhibition at 40 µM: 89%
AChE
  SI (selectivity index): 1.65
  IC50: 1.7 ± 2.08 µM
AChE; read-out: AChE inhibition
  inhibition at 50 µM: 96%
BuChE
  IC50: 2.8 ± 1.84 µM
Aβ42 [1]
  Secondary structure content: Others: 54.9%
  Secondary structure content: α-helix: 0.0%
  Secondary structure content: Turn: 17.8%
  Secondary structure content: β-sheet (parallel): 0.0%
  Secondary structure content: β-sheet (antiparallel): 27.3%
  inhibition in β-sheet formation: 64%
Aβ42 [2]; Aβ42 + compound 22 μM
  Congo red absorbance wavelength (red shift) with Aβ42: 510 nm
Aβ42 [2]; Aβ42 + compound 44 μM
  Congo red absorbance wavelength (red shift) with Aβ42: 510 nm
Aβ42 [3]
  inhibition at 44 µM: 69%
PC12 cells [4]; rat, 40 μM
  survival of PC12 cells against Aβ42 cytotoxicity (MTT): 92%
BACE-1
  inhibition at 50 µM: 47%
PC12 cells [5]
  survival of PC12 cells against H2O2 induced oxidative stress (MTT): 93%
Aβ42 [6]
  morphology of Aβ42 aggregates by TEM: shorter, loose, and less Aβ42 fibrils along with small oligomers

## N[C@@H](CCC(=O)N[C@@H](CS)C(=O)NCC(=O)O)C(=O)O [glutathione]
PC12 cells [5]
  survival of PC12 cells against H2O2 induced oxidative stress (MTT): 91%

## Tannic acid
Aβ42 [3]
  inhibition of Aβ42 aggregation (ThT fluorescence): 85%

## COC(=O)C1=CO[C@@H](C)[C@H]2CN3CCc4c([nH]c5ccccc45)[C@@H]3C[C@H]12 [Ajmalicine]
MAO-B; at 40 μM
  MAO-B inhibition: 89%
AChE
  SI (selectivity index): 1.55
  IC50: 3.5 ± 1.41 µM
AChE; at 50 μM
  AChE inhibition: 90%
BuChE
  IC50: 5.44 ± 1.75 µM
Aβ42 [1]
  Secondary structure content: Others: 53.1%
  Secondary structure content: α-helix: 0.0%
  Secondary structure content: Turn: 11.7%
  Secondary structure content: β-sheet (parallel): 0.0%
  Secondary structure content: β-sheet (antiparallel): 35.2%
  inhibition in β-sheet formation: 53%
Aβ42 [2]; Aβ42 + compound 22 μM
  Congo red absorbance wavelength (red shift) with Aβ42: 510 nm
Aβ42 [2]; Aβ42 + compound 44 μM
  Congo red absorbance wavelength (red shift) with Aβ42: 510 nm
Aβ42 [3]
  inhibition of Aβ42 aggregation (ThT fluorescence): 57%
PC12 cells [4]; compound 40 μM, Aβ42 fibrils 40 μM
  survival of PC12 cells against Aβ42 cytotoxicity (MTT): 67%
BACE-1; at 50 μM
  inhibition of BACE-1 activity: 69%
PC12 cells [5]
  survival of PC12 cells against H2O2 induced oxidative stress (MTT): 89%
Aβ42 [6]
  morphology of Aβ42 aggregates by TEM: shorter, loose, and less Aβ42 fibrils along with small oligomers

## NCCCS(=O)(=O)O [homotaurine]
PC12 cells [4]; rat, 40 μM
  survival of PC12 cells against Aβ42 cytotoxicity (MTT): 58%
